From patent publication EP0123217A1, “1-(4-(4-(Fluoralkylmethylthio or sulfinyl or sulfinyl-)phenoxy)phenyl)-1,3,5-triazine-2,4,6(1H-3H,5H)triones, process for their preparation and their use as agents against coccidiosis” (BAYER AG, priority 1983, dated 1984) come the findings set out here.

Structures can show the parent of a compound that is named as a salt.

The test system of one test is E. acervulina. Description: Coccidiosis in chicks, minimum effective dose (oocyst excretion, clinical symptoms, mortality). In kind it is in vivo, Eimeria acervulina.
The next test deals with E. maxima. Described as above. In kind it is in vivo, Eimeria maxima.
In the next test the test system is E. tenella. The test is described as above. The format is in vivo, Eimeria tenella.
For the next test, the system named is E. falciformis. The test is described as follows: Coccidiosis in mice, minimum effective dose (oocyst excretion, clinical symptoms, mortality). In kind it is in vivo, Eimeria falciformis. To be noted: for minimal effective dose: Eimeria falciformis, mice (15 g), infected with 10,000 sporulated oocysts, treated on days 1, 2, 3, 6, 7 and 8 after infection, read-out: wirksame Mindestdosierung E. falciformis. The source says:
Die coccidiostatische Aktivität von Verbindungen, die für die Verbindungen gemäß der Erfindung repräsentativ sind, wird in Tabelle 1 veranschaulicht, wo Eimeria tenella (Blinddarm-Coccidiose/Hühner), Eimeria acervulina und Eimeria maxima (Dünndarm-Coccidiose von Hühnern) als Beispiele der Aktivität im Falle der Coddidiose bei Geflügel genannt sind, während Eimeria falciformus (Coccidiose/Mäuse) als Coccidium bei Säugetieren angegeben ist.
Die Behandlung der Infektion mit Eimeria falciformis bei Mäusen, die als Beispiel der Coccidiose bei Säugetieren erwähnt ist, fand am ersten, zweiten, dritten, sechsten, siebten und achten Tag nach der Infektion statt. Die Infektion erfolgte mit.10,000 sporulierten Oozysten pro Maus (Gewicht 15 g). Im Falle der unbehandelten Vergleichstiere fanden massive Ausscheidung von Oozysten, blutiger Durchfall und 30 % Sterblichkeit der Tiere, die der Infektion zuzuschreiben waren, vom siebten Tage nach der Infektion an statt.
Als wirksam wurden diejenigen Dosen angesehen, die die Ausscheidung von Oozysten und/oder klinische Symptome der Coccidiose einschließlich der Mortalität vollständig oder in hohem Maße verhüteten.

Where [1] appears, read: chicks 9 to 11 days old, infected with 4000 sporulated oocysts, compound given from 3 days before to 8 days after infection.

For the compound `CCCc1ncc(C[n+]2ccccc2C)c(N)n1` [A, 1[(4-Amino-2-propyl-5-pyrimidinyl)-methyl]-2-picoliniumchloridhydrochlorid, reference compound], the “wirksame Mindestdosierung E. acervulina” value in the test on E. acervulina (setting [1]) is listed as 125 ppm. Further, in the test on E. maxima (setting [1]), the “wirksame Mindestdosierung E. maxima” value amounted to 125 ppm. The “wirksame Mindestdosierung E. tenella” value with E. tenella (setting [1]) is given as 125 ppm. Besides, the minimal effective dose with E. falciformis is 500 mg/kg.
For the compound `CCC1(C2OC(C3OC(O)(CO)C(C)CC3C)CC2C)CCC(C2(C)CCC3(CC(O)C(C)C(C(C)C(OC)C(C)C(=O)O)O3)O2)O1` (centres unmarked) [M, reference compound], the “wirksame Mindestdosierung E. acervulina” value in the test with E. acervulina (in vivo) stood at 50 ppm. Further, the “wirksame Mindestdosierung E. maxima” value with E. maxima (in vivo) came to 50 ppm. In the test on E. tenella (in vivo), the “wirksame Mindestdosierung E. tenella” value amounted to 75 ppm. Moreover, in the test on E. falciformis (in vivo), the “wirksame Mindestdosierung E. falciformis” value was 250 mg/kg.
For the compound `Cn1c(=O)[nH]c(=O)n(-c2cc(Cl)c(Oc3ccc(SCC(F)(F)F)cc3)c(Cl)c2)c1=O` [[drawing] r3], in the test with E. acervulina (setting [1]), the “wirksame Mindestdosierung E. acervulina” value is 25 ppm. In addition, in the test on E. maxima (setting [1]), the “wirksame Mindestdosierung E. maxima” value was determined as 25 ppm. For the same compound, the “wirksame Mindestdosierung E. tenella” value in the test on E. tenella (setting [1]) worked out at 50 ppm. The minimal effective dose with E. falciformis came out at 1 mg/kg.
`COc1cc(-n2c(=O)[nH]c(=O)n(C)c2=O)ccc1Oc1ccc(SCC(F)(F)F)cc1` [[drawing] r4]: the “wirksame Mindestdosierung E. acervulina” value in the test with E. acervulina (setting [1]) is 50 ppm. In addition, the “wirksame Mindestdosierung E. maxima” value with E. maxima (setting [1]) stood at 50 ppm. Also, in the test with E. tenella (setting [1]), the “wirksame Mindestdosierung E. tenella” value was found to be 50 ppm. The minimal effective dose in the test with E. falciformis was found to be 25 mg/kg.
For the compound `Cn1c(=O)[nH]c(=O)n(-c2cc(Cl)c(Oc3ccc(S(=O)(=O)CC(F)(F)F)cc3)c(Cl)c2)c1=O` [[drawing] r5], the “wirksame Mindestdosierung E. acervulina” value in the test on E. acervulina (setting [1]) is 10 ppm. Further, the “wirksame Mindestdosierung E. maxima” value with E. maxima (setting [1]) was 10 ppm. Besides, the “wirksame Mindestdosierung E. tenella” value with E. tenella (setting [1]) is listed as 10 ppm. Further, the minimal effective dose in the test on E. falciformis came out at 100 mg/kg.
